A short description of data set [1]: Metabolic stability in human liver microsome assessed as parent compound remaining at 1 mg/mL measured after 10 mins. The format is ADME. Conditions: liver microsomes, read-out: Stability. Background: Liver microsomes are vesicles of endoplasmic reticulum, rich in cytochrome P450 enzymes.
The target in data set [2] is T1, Bile acid receptor (Mus musculus) (UniProt Q60641).
T1 sequence (whole entry): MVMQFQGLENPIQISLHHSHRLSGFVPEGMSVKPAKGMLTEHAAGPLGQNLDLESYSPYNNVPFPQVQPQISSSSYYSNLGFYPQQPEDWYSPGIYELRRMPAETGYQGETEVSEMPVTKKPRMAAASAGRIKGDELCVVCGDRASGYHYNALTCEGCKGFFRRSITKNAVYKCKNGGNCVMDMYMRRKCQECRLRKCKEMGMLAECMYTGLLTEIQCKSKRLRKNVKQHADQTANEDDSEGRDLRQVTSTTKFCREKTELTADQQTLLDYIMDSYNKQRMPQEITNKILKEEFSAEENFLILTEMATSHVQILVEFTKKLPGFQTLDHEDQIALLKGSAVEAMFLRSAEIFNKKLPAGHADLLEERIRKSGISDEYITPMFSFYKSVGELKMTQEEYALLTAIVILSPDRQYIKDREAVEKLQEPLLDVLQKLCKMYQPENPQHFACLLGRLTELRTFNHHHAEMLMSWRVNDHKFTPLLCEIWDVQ
As to the kind of experiment: Agonist activity at LBD-fused mouse FXR in HEK293 cells incubated for 30 min by envision plate reader method relative to GW2064. The data set is classed as cell-based. Conditions: filed as agonist.

For data set [3], the system named is Bile acid receptor (Homo sapiens). Kind of data set: Agonist activity at human FXR expressed in HEK293 cells coexpressing IBABP relative to GW2064. The following applies: filed as agonist.
For data set [4], the target named is T2, Bile acid receptor (Homo sapiens) (UniProt Q96RI1).
T2 sequence (whole entry): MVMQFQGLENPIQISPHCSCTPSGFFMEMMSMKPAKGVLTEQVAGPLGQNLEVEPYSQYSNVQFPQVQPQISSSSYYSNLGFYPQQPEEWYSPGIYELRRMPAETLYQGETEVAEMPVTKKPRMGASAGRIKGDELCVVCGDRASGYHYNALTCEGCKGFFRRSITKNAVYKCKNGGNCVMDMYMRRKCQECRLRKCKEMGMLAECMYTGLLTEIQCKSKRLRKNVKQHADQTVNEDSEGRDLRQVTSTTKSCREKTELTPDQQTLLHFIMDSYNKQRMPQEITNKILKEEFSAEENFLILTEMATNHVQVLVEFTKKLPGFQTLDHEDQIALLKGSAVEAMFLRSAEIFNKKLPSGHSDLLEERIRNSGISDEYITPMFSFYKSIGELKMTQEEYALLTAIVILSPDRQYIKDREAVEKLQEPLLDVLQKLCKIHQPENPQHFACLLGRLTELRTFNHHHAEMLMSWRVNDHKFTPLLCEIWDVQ
Kind of data set: Agonist activity at LBD-fused human FXR in HEK293 cells incubated for 30 min by envision plate reader method relative to GW2064. The format is cell-based.

A short description of data set [5]: Metabolic stability in mouse liver microsome assessed as parent compound remaining at 1 mg/mL measured after 10 mins. The following applies: liver microsomes, read-out: Stability. The format is ADME.
Data set [6] concerns Bile acid receptor (Homo sapiens). Kind of data set: Agonist activity at human FXR expressed in HEK293 cells coexpressing human FGF19 incubated for 24 hrs by ELISA analysis relative to GW2064. A general note: An ELISA detects its analyte on a solid surface through an enzyme-linked reagent.
Data set [7] in a line: Metabolic stability in rat liver microsome assessed as parent compound remaining at 1 mg/mL measured after 10 mins. The format is ADME. Conditions: liver microsomes, read-out: Stability.
Data set [8] deals with T3, Bile acid receptor (Homo sapiens, UniProt Q96RI1).
T3 sequence (Q96RI1 whole entry): T2 sequence (whole entry)
As to the kind of experiment: Agonist activity at Gal4-fused human FXR in HEK293 cells incubated for 15 min by luciferase reporter assay. The data set is classed as cell-based. On the technique in general: A reporter such as luciferase makes a cellular process visible.

For data set [9], the target named is T4, Bile acid receptor (Mus musculus, UniProt Q60641).
T4 sequence (Q60641 whole entry): T1 sequence (whole entry)
As to the kind of experiment: Agonist activity at mouse LBD fused FXR in HEK293 cells incubated for 30 min by envision plate reader method. The data set is classed as cell-based.

Molecules are shown by their SMILES.

What is called Emax is the maximal effect, on the per cent scale that the assay sets. By EC50 is commonly meant the midpoint of the concentration-response curve.

Regarding `COC(=O)/C=C/c1cccc(N(CC23CCC(c4ccc(N(C)C)cc4)(CC2)CC3)C(=O)C2CCCCC2)c1`, the remaining at 10 min in data set [1] stood at 90%; in [5], 77%. Besides, the maximum response (Emax) in data set [2] was 279%; in data set [3] it was 42%; in data set [4], 30%; in data set [6], 24%. Also, in data set [7], the remaining at 10 min, 1 mg/mL came to 32%. The compound also came in with an EC50 in [8] of 0.066 µM.

Take `O=C(O)c1cc(C(F)(F)F)c2cc(N3CCC4(C=C(c5c(-c6c(Cl)cncc6Cl)noc5C5CC5)C4)CC3)ccc2n1`: the EC50 in [9] stood at 0.32 µM.

For the compound `COC(=O)/C=C/c1cccc(N(CC23CCC(c4nc(C)no4)(CC2)CC3)C(=O)C2CCCCC2)c1`, the values for the remaining at 10 min in data set [1] and in [5] were 6% and 4%, respectively. In addition, in data set [7], the remaining at 10 min, 1 mg/mL is 31%. The compound also showed a 50% effective concentration (EC50) in data set [8] of 0.057 µM.

Values taken from ChEMBL document CHEMBL5143714, “Discovery of BMS-986339, a Pharmacologically Differentiated Farnesoid X Receptor Agonist for the Treatment of Nonalcoholic Steatohepatitis” (J Med Chem, 2022).
